From patent US20250129103A1, “METHODS FOR TREATMENT OF CANCER” (Frontier Medicines Corporation, priority 2022, published 2025)
≈ marks a conversion by molar mass, not a printed value.

Columns and labels:
[1] = Determination of kinetic solubility (pH 7.4); assay type: physicochemical; settings: for solubility kinetic at 2 h: phosphate buffer, pH 7.4, aqueous buffer, kinetic from dmso stock, 50 mM phosphate buffer pH 7.4, read-out: Ksol, pH 7.4
Experimental: 490 μL of a 50 mM phosphate buffer (pH 7.4) was added to the sample solution. The mixture was vortexed for at least 2 minutes. The vial was shaken on a Barnstead shaker at 800 rpm at room temperature for 2 hours. The vial was centrifuged at 4000 rpm for 20 minutes. The Mini-UniPrep vial was compressed to prepare a filtrate, which was injected into an HPLC-UV and LC-MS/MS system. Kinetic solubility was calculated by referencing sample peak areas to a standard calibration curve.

[2] = Determination of logD (1-octanol / phosphate buffer pH 7.4); assay type: physicochemical; settings: for logD: 1-octanol/phosphate buffer, pH 7.4, pH 7.4, 1-octanol/phosphate buffer, read-out: Log D, pH 7.4
Experimental: Preparation of phosphate buffer saturated with 1-octanol: 10 mL of 100 mM phosphate buffer (pH 7.4) was added to 100 mL of 1-octanol. The mixture was shaken vigorously and left to stand at room temperature overnight.
Preparation of 1-octanol saturated with phosphate buffer: 10 mL of 1-octanol was added to 100 mL of 100 mM phosphate buffer (pH 7.4). The mixture was shaken vigorously and left to stand at room temperature overnight.
149 μL of phosphate buffer saturated with 1-octanol was added into 1st sample tube. 149 μL of 1-octanol saturated with phosphate buffer was added into the 2nd sample tube. The sample tubes were mixed vigorously and shaken for 1 hour at a speed of 800 rpm at room temperature. The sample tubes were subjected to centrifugation at 4000 rpm for 5 minutes at room temperature. Samples of the supernatant were taken from both tubes, diluted with an appropriate LCMS buffer, and analyzed on an LCMS instrument. LogD was calculated according to the following equation.

[3] = target: KRAS G12C (GMPPNP-loaded) and cRAF (Ras-binding domain) interaction (Homo sapiens (Human), UniProt P01116, C118S/C51S/C80L/G12C); assay: Inhibition of KRAS G12C and cRAF binding (AlphaScreen); settings: KRAS G12C loaded with GMPPNP, cRaf RBD, 2 hours preincubation; read-out: Raf-1 RBD K-Ras IC50
Method in brief: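 AlphaScreen readout (680 nm excitation, 570 nm emission) of RBD binding after a 60-90 min bead step at room temperature. This step follows 2 h compound exposure of GMPPNP-preloaded KRAS G12C in Hepes pH 7.4 buffer with MgCl2 and 10 μM GMPPNP.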

Sequence of KRAS G12C (GMPPNP-loaded) and cRAF (Ras-binding domain) interaction (P01116 other isoform, or with tags, fused parts or gaps G12C/C51S/C80L/C118S): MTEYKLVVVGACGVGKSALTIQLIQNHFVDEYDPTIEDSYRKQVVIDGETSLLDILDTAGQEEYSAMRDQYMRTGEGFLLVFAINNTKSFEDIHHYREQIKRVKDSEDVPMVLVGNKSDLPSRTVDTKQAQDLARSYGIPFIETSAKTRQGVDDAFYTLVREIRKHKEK

SMILES	solubility kinetic at 2 h [1]	logD [2]	IC50 [3]	Ksol, pH 7.4 (ug/mL) ([1]; 50 mM phosphate buffer pH 7.4)	Log D, pH 7.4 ([2]; pH 7.4, 1-octanol/phosphate buffer)
N#CC[C@H]1CN(c2nc(OC[C@@]34CCCN3C[C@H](F)C4)nc3c(F)c(-c4cccc5cccc(F)c45)ncc23)CCN1C(=O)/C=C/CN1CC2CCC(C1)O2 [Compound 245]	74.4 µg/mL (≈ 98.8 µM)	2.91	10 to 100 nM		
N#CC[C@H]1CN(c2nc(OC[C@@]34CCCN3C[C@H](F)C4)nc3c(F)c(-c4cccc(Cl)c4C4CC4)ncc23)CCN1C(=O)/C=C/[C@H]1CCN1C1CC1 [Compound 314]	32.3 µg/mL (≈ 44.2 µM)	4.05	< 10 nM		
N#CC[C@H]1CN(c2nc(OCC34CCCN3CCC4)nc3c(F)c(-c4cccc5ccc(F)c(Cl)c45)ncc23)CCN1C(=O)/C=C/CN1C[C@H]2C[C@@H]1CO2 [Compound 183]	110 µg/mL (≈ 146 µM)	1.48	< 10 nM		
CO[C@H]1CCN(C/C=C/C(=O)N2CCN(c3nc(OC[C@@]45CCCN4C[C@H](F)C5)nc4c(F)c(-c5cccc(Cl)c5C5CC5)ncc34)C[C@@H]2CC#N)C1 [Compound 287]	114 µg/mL (≈ 152 µM)	3.23	< 10 nM		
CCc1c(F)ccc2cccc(-c3ncc4c(N5CCN(C(=O)/C=C/CN6CC7CC(C6)O7)[C@@H](CC#N)C5)nc(OC[C@@]56CCCN5C[C@H](F)C6)nc4c3F)c12 [Compound 242]	93.3 µg/mL (≈ 122 µM)	3.38	< 10 nM		
C#Cc1c(F)ccc2cccc(-c3ncc4c(N5CCN(C(=O)/C=C/CN6CC7CC(C6)O7)[C@@H](CC#N)C5)nc(OC[C@@]56CCCN5C[C@H](F)C6)nc4c3F)c12 [Compound 256]	101 µg/mL (≈ 133 µM)	2.71	< 10 nM		
N#CC[C@H]1CN(c2nc(OC[C@@]34CCCN3C[C@H](F)C4)nc3c(F)c(-c4cccc(Cl)c4C4CC4)ncc23)CCN1C(=O)/C=C/CN1C[C@H]2C[C@@H]1CO2 [Compound 276]	108 µg/mL (≈ 145 µM)	3	< 10 nM		
Cc1noc(/C=C/C(=O)N2CCN(c3nc(OCC45CCCN4CCC5)nc4c3CCN(c3cccc5cccc(Cl)c35)C4)C[C@@H]2CC#N)n1 [Compound 28]			100 to 500 nM	43.66 ug/mL	3.22
Cc1nccc(/C=C/C(=O)N2CCN(c3nc(OCC45CCCN4CCC5)nc4c(F)c(-c5cccc6ccc(F)c(Cl)c56)ncc34)C[C@@H]2CC#N)n1 [Compound 155]	89.1 µg/mL (≈ 121 µM)		< 10 nM		
N#CC[C@H]1CN(c2nc(OC[C@@]34CCCN3C[C@H](F)C4)nc3c(F)c(-c4cccc5cccc(Cl)c45)ncc23)CCN1C(=O)/C=C/CN1CCOC2CC21 (some centres unmarked) [Compound 274]	76.2 µg/mL (≈ 101 µM)	3.14	10 to 100 nM		
Cc1ncc(F)c(/C=C/C(=O)N2CCN(c3nc(OC[C@@]45CCCN4C[C@H](F)C5)nc4c(F)c(-c5cccc6cccc(Cl)c56)ncc34)C[C@@H]2CC#N)n1 [Compound 157]	0.55 µg/mL (≈ 0.729 µM)	4.05	10 to 100 nM		
N#CC[C@H]1CN(c2nc(OC[C@@]34CCCN3C[C@H](F)C4)nc3c(F)c(-c4cccc5cccc(Cl)c45)ncc23)CCN1C(=O)/C=C/CN1CCN(C2COC2)CC1 [Compound 325]	115 µg/mL (≈ 144 µM)	2.5	< 10 nM		
N#CC[C@H]1CN(c2nc(OC[C@@]34CCCN3C[C@H](F)C4)nc3c(F)c(-c4cccc(Cl)c4C(F)(F)F)ncc23)CCN1C(=O)/C=C/CN1C[C@@H]2C[C@H]1CO2 [Compound 293]	96.7 µg/mL (≈ 125 µM)	2.54	< 10 nM		
Cc1cc(N)nc(-c2ncc3c(N4CCN(C(=O)/C=C/c5nc(C(C)C)no5)[C@@H](CC#N)C4)nc(OC[C@@]45CCCN4C[C@H](F)C5)nc3c2F)c1C(F)(F)F [Compound 135]	94.6 µg/mL (≈ 123 µM)	3.42	10 to 100 nM		
N#CC[C@H]1CN(c2nc(OCC34CCCN3CCC4)nc3c2CCN(c2cccc4cccc(Cl)c24)C3)CCN1C(=O)/C=C/CN1[C@@H]2CC[C@H]1COC2 [Compound 168]	104 µg/mL (≈ 142 µM)	2.59	< 10 nM		
N#CC[C@H]1CN(c2nc(OCC34CCCN3CCC4)nc3c2CCN(c2cccc4cccc(Cl)c24)C3)CCN1C(=O)/C=C/c1ncccn1 [Compound 35]	111 µg/mL (≈ 161 µM)	2.77	100 to 500 nM		
C[C@@H]1CN(C/C=C/C(=O)N2CCN(c3nc(OC[C@@]45CCCN4C[C@H](F)C5)nc4c(F)c(-c5cccc6ccc(F)c(F)c56)ncc34)C[C@@H]2CC#N)C[C@@H](C)O1 [Compound 241]	60.1 µg/mL (≈ 77.7 µM)	2.94	10 to 100 nM		
N#CC[C@H]1CN(c2nc(OCC34CCCN3CCC4)nc3c(F)c(-c4cccc5ccc(F)c(Cl)c45)ncc23)CCN1C(=O)/C=C/CN1C[C@@H]2C[C@H]1CO2 [Compound 182]	119 µg/mL (≈ 158 µM)	1.44	< 10 nM		
C[C@H]1CN(C/C=C/C(=O)N2CCN(c3nc(OC[C@@]45CCCN4C[C@H](F)C5)nc4c(F)c(-c5cccc(Cl)c5C5CC5)ncc34)C[C@@H]2CC#N)C[C@H](C)O1 [Compound 302]	118 µg/mL (≈ 155 µM)	4.21	< 10 nM		
C[C@H]1CN(C/C=C/C(=O)N2CCN(c3nc(OC[C@@]45CCCN4C[C@H](F)C5)nc4c(F)c(-c5cccc(Cl)c5C(F)(F)F)ncc34)C[C@@H]2CC#N)C[C@H](C)O1 [Compound 308]	80.5 µg/mL (≈ 102 µM)	3.75	10 to 100 nM		
CN(C)C/C=C/C(=O)N1CCN(c2nc(OC[C@@]34CCCN3C[C@H](F)C4)nc3c(F)c(-c4cccc(Cl)c4C4CC4)ncc23)C[C@@H]1CC#N [Compound 115, 2-((S)-4-(7-(3-chloro-2-cyclopropylphenyl)-8-fluoro-2-(((2R,7aS)-2-fluorotetrahydro-1H-pyrrolizin-7a(5H)-yl)methoxy)pyrido[4,3-d]pyrimidin-4-yl)-1-((E)-4-(dimethylamino)but-2-enoyl)piperazin-2-yl)acetonitrile]	114 µg/mL (≈ 165 µM)	2.54	10 to 100 nM		
N#CC[C@H]1CN(c2nc(OC[C@@]34CCCN3C[C@H](F)C4)nc3c(F)c(-c4nc(N)cc5cccc(F)c45)ncc23)CCN1C(=O)/C=C/CN1CCOCC1 [Compound 60]	94.8 µg/mL (≈ 128 µM)	1.08	< 10 nM		
N#CC[C@H]1CN(c2nc(OC[C@@]34CCCN3C[C@H](F)C4)nc3c(F)c(-c4cccc(Cl)c4C4CC4)ncc23)CCN1C(=O)/C=C/CN1CC2CCC(C1)O2 [Compound 261]	56.7 µg/mL (≈ 74.7 µM)	3.14	10 to 100 nM		
Cc1cc(N)nc(C2Cc3nc(OC[C@@]45CCCN4C[C@H](F)C5)nc(N4CCN(C(=O)/C=C/C5CCN5C)[C@@H](CC#N)C4)c3CC2C)c1C(F)(F)F (stereo partly drawn) [Example 68, 2-((2S)-4-(7-(6-amino-4-methyl-3-(trifluoromethyl)pyridin-2-yl)-2-(((2R,7aS)-2-fluorohexahydro-1H-pyrrolizin-7a-yl)methoxy)-6-methyl-5,6,7,8-tetrahydroquinazolin-4-yl)-1-((E)-3-(1-methylazetidin-2-yl)acryloyl)piperazin-2-yl)acetonitrile]	102 µg/mL (≈ 140 µM)				
N#CC[C@H]1CN(c2nc(OCC34CCCN3CCC4)nc3c(F)c(-c4cccc5cccc(Cl)c45)ncc23)CCN1C(=O)/C=C/CN1CCOCC1 [Compound 149]	106 µg/mL (≈ 147 µM)		10 to 100 nM		
